Measured values taken from PubChem BioAssay AID1259407 (Chemical Carcinogenesis Research Information System (CCRIS), 2018).
The source made the active and inactive calls. No rule for the calls is given here.

System: CCRIS mutagenicity, Ames/micronucleus/aberration tests
Test: CCRIS mutagenicity studies
[1] = Test System: AMES SALMONELLA TYPHIMURIUM, Strain/Indicator: TA98, Metabolic Activation: NONE, Method: PREINCUBATION
[2] = Test System: AMES SALMONELLA TYPHIMURIUM, Strain/Indicator: TA100, Metabolic Activation: NONE, Method: PREINCUBATION
[3] = Test System: AMES SALMONELLA TYPHIMURIUM, Strain/Indicator: TA1535, Metabolic Activation: NONE, Method: PREINCUBATION

## Nc1ccc(N=Nc2ccc(-c3ccc(N=Nc4c(S(=O)(=O)O)cc5c(c4N)C(=O)/C(=N/Nc4ccccc4)C(S(=O)(=O)O)=C5)cc3)cc2)c(N)c1
Test System: AMES SALMONELLA TYPHIMURIUM, Strain/Indicator: SV50, Metabolic Activation: HAMSTER, LIVER, S-9, Method: PREINCUBATION (PRIVAL METHOD)
  mutagenic call: active; positive
Test System: AMES SALMONELLA TYPHIMURIUM, Strain/Indicator: SV50, Metabolic Activation: RAT, LIVER, S-9, AROCLOR 1254, Method: PREINCUBATION (PRIVAL METHOD)
  mutagenic call: active; positive
Test System: AMES SALMONELLA TYPHIMURIUM, Strain/Indicator: TA98, Metabolic Activation: HAMSTER, LIVER, S-9, Method: PREINCUBATION (PRIVAL METHOD)
  mutagenic call: active; positive
Test System: AMES SALMONELLA TYPHIMURIUM, Strain/Indicator: TA98, Metabolic Activation: NONE, Method: STANDARD PLATE
  mutagenic call: inactive; negative
Test System: AMES SALMONELLA TYPHIMURIUM, Strain/Indicator: TA98, Metabolic Activation: RAT, LIVER, S-9, AROCLOR 1254, Method: PREINCUBATION (PRIVAL METHOD)
  mutagenic call: active; positive
Test System: AMES SALMONELLA TYPHIMURIUM, Strain/Indicator: TA98, Metabolic Activation: RAT, LIVER, S-9, PHENOBARBITAL, Method: STANDARD PLATE
  mutagenic call: inactive; negative
Test System: AMES SALMONELLA TYPHIMURIUM, Strain/Indicator: TA100, Metabolic Activation: NONE, Method: STANDARD PLATE
  mutagenic call: inactive; negative
Test System: AMES SALMONELLA TYPHIMURIUM, Strain/Indicator: TA100, Metabolic Activation: RAT, LIVER, S-9, PHENOBARBITAL, Method: STANDARD PLATE
  mutagenic call: inactive; negative
Test System: AMES SALMONELLA TYPHIMURIUM, Strain/Indicator: TA1538, Metabolic Activation: NONE, Method: STANDARD PLATE
  mutagenic call: inactive; negative
Test System: AMES SALMONELLA TYPHIMURIUM, Strain/Indicator: TA1538, Metabolic Activation: RAT, LIVER, S-9, AROCLOR 1254, Method: STANDARD PLATE
  mutagenic call: active; positive
Test System: Ames Salmonella typhimurium, Strain/Indicator: TA98, Metabolic Activation: Rat, Liver, S-9, Sodium phenobarbitone, Method: Preincubation
  mutagenic call: active; positive, test conducted under both aerobic and anaerobic conditions.
Test System: Ames Salmonella typhimurium, Strain/Indicator: TA1538, Metabolic Activation: Rat, Liver, S-9, Sodium phenobarbitone, Method: Preincubation
  mutagenic call: active; positive, test conducted under both aerobic and anaerobic conditions.

## CC(=O)N(C)c1ccc(N=Nc2ccc(N(C)C(C)=O)cc2)cc1
Test System: AMES SALMONELLA TYPHIMURIUM, Strain/Indicator: TA98, Metabolic Activation: RAT, LIVER, S-9, POLYCHLORINATED BIPHENYLS, Method: PREINCUBATION
  mutagenic call: inactive; negative
Test System: AMES SALMONELLA TYPHIMURIUM, Strain/Indicator: TA100, Metabolic Activation: RAT, LIVER, S-9, POLYCHLORINATED BIPHENYLS, Method: PREINCUBATION
  mutagenic call: inactive; negative

## N=C(N)N
[1]
  mutagenic call: inactive; negative
Test System: AMES SALMONELLA TYPHIMURIUM, Strain/Indicator: TA98, Metabolic Activation: RAT LIVER S-9, PHENOBARBITAL AND BETA-NAPHTHOFLAVONE, Method: PREINCUBATION
  mutagenic call: inactive; negative
[2]
  mutagenic call: inactive; negative
Test System: AMES SALMONELLA TYPHIMURIUM, Strain/Indicator: TA100, Metabolic Activation: RAT LIVER S-9, PHENOBARBITAL AND BETA-NAPHTHOFLAVONE, Method: PREINCUBATION
  mutagenic call: inactive; negative
[3]
  mutagenic call: inactive; negative
Test System: AMES SALMONELLA TYPHIMURIUM, Strain/Indicator: TA1535, Metabolic Activation: RAT LIVER S-9, PHENOBARBITAL AND BETA-NAPHTHOFLAVONE, Method: PREINCUBATION
  mutagenic call: inactive; negative
Test System: AMES SALMONELLA TYPHIMURIUM, Strain/Indicator: TA1537, Metabolic Activation: NONE, Method: PREINCUBATION
  mutagenic call: inactive; negative
Test System: AMES SALMONELLA TYPHIMURIUM, Strain/Indicator: TA1537, Metabolic Activation: RAT LIVER S-9, PHENOBARBITAL AND BETA-NAPHTHOFLAVONE, Method: PREINCUBATION
  mutagenic call: inactive; negative
Test System: AMES SALMONELLA TYPHIMURIUM, Strain/Indicator: TA1538, Metabolic Activation: NONE, Method: PREINCUBATION
  mutagenic call: inactive; negative
Test System: AMES SALMONELLA TYPHIMURIUM, Strain/Indicator: TA1538, Metabolic Activation: RAT LIVER S-9, PHENOBARBITAL AND BETA-NAPHTHOFLAVONE, Method: PREINCUBATION
  mutagenic call: inactive; negative
Test System: E.COLI, Strain/Indicator: WP2UVRA, Metabolic Activation: NONE, Method: PREINCUBATION
  mutagenic call: inactive; negative
Test System: E.COLI, Strain/Indicator: WP2UVRA, Metabolic Activation: RAT LIVER S-9, PHENOBARBITAL AND BETA-NAPHTHOFLAVONE, Method: PREINCUBATION
  mutagenic call: inactive; negative

## COc1cc2ccnc3c2c(c1OC)-c1ccccc1C3=O
Test System: AMES SALMONELLA TYPHIMURIUM, Strain/Indicator: TA100, Metabolic Activation: RAT, LIVER, S-9, PHENOBARBITAL AND BETA-NAPHTHOFLAVONE, Method: PREINCUBATION
  mutagenic call: active; positive

## CCCCN(N=O)/C(N)=N/[N+](=O)[O-]
[2]
  mutagenic call: active; positive
Test System: AMES SALMONELLA TYPHIMURIUM, Strain/Indicator: TA100, Metabolic Activation: RAT, LIVER, S-9, KC500 OR PHENOBARBITAL, Method: LIQUID SUSPENSION
  mutagenic call: active; positive
[3]
  mutagenic call: active; positive
Test System: AMES SALMONELLA TYPHIMURIUM, Strain/Indicator: TA1535, Metabolic Activation: NONE, Method: STANDARD PLATE
  mutagenic call: active; positive
Test System: AMES SALMONELLA TYPHIMURIUM, Strain/Indicator: TA1535, Metabolic Activation: RAT, LIVER, S-9, KC500 OR PHENOBARBITAL, Method: LIQUID SUSPENSION
  mutagenic call: active; positive
Test System: AMES SALMONELLA TYPHIMURIUM, Strain/Indicator: YG7104, Metabolic Activation: NONE, Method: PREINCUBATION
  mutagenic call: active; positive
Test System: AMES SALMONELLA TYPHIMURIUM, Strain/Indicator: YG7108, Metabolic Activation: NONE, Method: PREINCUBATION
  mutagenic call: active; positive
Test System: AMES SALMONELLA TYPHIMURIUM, Strain/Indicator: YG7112, Metabolic Activation: NONE, Method: PREINCUBATION
  mutagenic call: active; positive
Test System: AMES SALMONELLA TYPHIMURIUM, Strain/Indicator: YG7113, Metabolic Activation: NONE, Method: PREINCUBATION
  mutagenic call: active; positive

## CCOP(=O)(NC(C)C)Oc1ccc(SC)c(C)c1 (configuration not stated)
Test System: AMES SALMONELLA TYPHIMURIUM, Strain/Indicator: TA97, Metabolic Activation: HAMSTER, LIVER, S-9, AROCLOR 1254 (10%), Method: PREINCUBATION
  mutagenic call: inactive; negative
Test System: AMES SALMONELLA TYPHIMURIUM, Strain/Indicator: TA97, Metabolic Activation: HAMSTER, LIVER, S-9, AROCLOR 1254 (30%), Method: PREINCUBATION
  mutagenic call: inactive; negative
Test System: AMES SALMONELLA TYPHIMURIUM, Strain/Indicator: TA97, Metabolic Activation: NONE, Method: PREINCUBATION
  mutagenic call: inactive; negative
Test System: AMES SALMONELLA TYPHIMURIUM, Strain/Indicator: TA97, Metabolic Activation: RAT, LIVER, S-9, AROCLOR 1254 (10 OR 30%), Method: PREINCUBATION
  mutagenic call: inactive; negative
Test System: AMES SALMONELLA TYPHIMURIUM, Strain/Indicator: TA98, Metabolic Activation: HAMSTER, LIVER, S-9, AROCLOR 1254 (10%), Method: PREINCUBATION
  mutagenic call: inactive; negative
Test System: AMES SALMONELLA TYPHIMURIUM, Strain/Indicator: TA98, Metabolic Activation: HAMSTER, LIVER, S-9, AROCLOR 1254 (30%), Method: PREINCUBATION
  mutagenic call: inactive; negative
[1]
  mutagenic call: inactive; negative
Test System: AMES SALMONELLA TYPHIMURIUM, Strain/Indicator: TA98, Metabolic Activation: RAT, LIVER, S-9, AROCLOR 1254 (10 OR 30%), Method: PREINCUBATION
  mutagenic call: inactive; negative
Test System: AMES SALMONELLA TYPHIMURIUM, Strain/Indicator: TA100, Metabolic Activation: HAMSTER, LIVER, S-9, AROCLOR 1254 (10%), Method: PREINCUBATION
  mutagenic call: inactive; negative
Test System: AMES SALMONELLA TYPHIMURIUM, Strain/Indicator: TA100, Metabolic Activation: HAMSTER, LIVER, S-9, AROCLOR 1254 (30%), Method: PREINCUBATION
  mutagenic call: inactive; negative
[2]
  mutagenic call: inactive; negative
Test System: AMES SALMONELLA TYPHIMURIUM, Strain/Indicator: TA100, Metabolic Activation: RAT, LIVER, S-9, AROCLOR 1254 (10 OR 30%), Method: PREINCUBATION
  mutagenic call: inactive; negative
Test System: AMES SALMONELLA TYPHIMURIUM, Strain/Indicator: TA1535, Metabolic Activation: HAMSTER, LIVER, S-9, AROCLOR 1254 (10%), Method: PREINCUBATION
  mutagenic call: inactive; negative
Test System: AMES SALMONELLA TYPHIMURIUM, Strain/Indicator: TA1535, Metabolic Activation: HAMSTER, LIVER, S-9, AROCLOR 1254 (30%), Method: PREINCUBATION
  mutagenic call: inactive; negative
[3]
  mutagenic call: inactive; negative
Test System: AMES SALMONELLA TYPHIMURIUM, Strain/Indicator: TA1535, Metabolic Activation: RAT, LIVER, S-9, AROCLOR 1254 (10 OR 30%), Method: PREINCUBATION
  mutagenic call: inactive; negative
